Each structure is given as a SMILES string.

The target of experiment [1] is T1, human Trk A kinase (Homo sapiens, UniProt P04629).
T1 construct: HIS; made in house; host or cells: SF9 insect cells
Description: Trk A kinase assay (Alphascreen). The experiment is classed as biochemical. Particulars: human Trk A intracellular domain, 70 μM ATP, 20 minutes, room temperature; read-out: IC50 (Trk inhibitory activity). Here is the method:
Trk A kinase activity was measured for its ability to phosphorylate synthetic tyrosine residues within a generic polypeptide substrate using an Amplified Luminescent Proximity Assay (Alphascreen) technology (PerkinElmer, 549 Albany Street, Boston, Mass.).
To measure Trk A kinase activity, the intracellular domain of a HIS-tagged human Trk A kinase (amino acids 442-796 of Trk A, Swiss-Prot Primary Accession Number P04629) was expressed in SF9 cells and purified using standard nickel column chromatography. After incubation of the kinase with a biotinylated substrate and adenosine triphosphate (ATP) for 20 minutes at room temperature, the kinase reaction was stopped by the addition of 30 mM ethylenediaminetetraacetic acid (EDTA). The reaction was performed in 384 well microtitre plates and the reaction products were detected with the addition of strepavidin coated Donor Beads and phosphotyrosine-specific antibodies coated Acceptor Beads using the EnVision Multilabel Plate Reader after an overnight incubation at room temperature.

In experiment [2] the test system is carrageenan-induced monoarthritis in rat. As to the kind of experiment: Monoarthritis induced by carrageenan, Paw Print setup (hindpaw weight distribution, "Walking pain"). It is filed as in vivo. The settings on record: for hindpaw weight distribution (difference in percent weight-bearing between the two hind paws), mean ±SEM: four hours after administration (five hours after carrageenan), vehicle group 39.0±2.1%, n=8. Here is the method:
One single injection of carrageenan directly into the rat knee joint produces symptoms peaking at 3 to 4 hours and lasting for one to two days, and which are sensitive to treatment by most anti-nociceptive drugs (Tonussi and Ferreira, Pain 1992, 48, 421-427).
Under isoflurane anesthesia, 50 μL of carrageenan (7.5 mg/mL) was injected into the left tibio-tarsal (ankle) joint from the dorsal side. This injection causes a localized inflammation increasing to a maximum between 4 h to 8 h after induction, after which it gradually decreases, and the animals display decreased weight bearing on and guarding of the limb.
The Paw Print walkway consists of a 100×10 cm path with an access point at one short end and an exit at the other, and the rats are trained to make a swift, continuous passage. The walkway has a glass floor where light is projected into one long edge via fiber optics. Projecting the light in this fashion allows for virtually complete internal reflection within the glass floor. Only where an object touches the glass, such as the placement of a rat paw, light is scattered at the point of contact and produces an illuminated print (Betts, Duckworth, Eng. Med. 1978, 7, 223-228) that is recorded by a wide-angle camera placed under the walkway. The light intensity (range 0-255) of the illumination depends on the degree of contact against the floor and increases with the applied pressure (Clarke, Physiology & Behavior 1995, 58, 415-419). The Paw Print setup is a modified version of the CatWalk introduced by Hamers, Lankhorst, van Laar, Veldhuis, Gispen (J. Neurotrauma 2001, 18, 187-201), and has a computerized gait detection algorithm extracting several parameters pertaining to the rat's gait pattern and weight-bearing.
The animals were trained to cross the walkway twice, one and two days before induction of monoarthritis. Recordings were subsequently made on the day of testing, immediately before, and three and five hours after carrageenan injection, corresponding to two and four hours after per oral administration of test compound. The following parameters were used for analysis:
Weight-bearing per paw=The total sum of maximum light intensities for all pixels in the print of one paw is multiplied by the number of pixels of the print area. A paw placement consists of a number of pixels with light intensity above a certain threshold value (80 in this study). During the time course of one paw placement, a maximum value of light intensity is recorded for each pixel.
Based on the weight-bearing results, the Paw Print algorithm chooses the median print per paw in one walkway crossing. The median weight-bearing of each paw constitutes a percentage of the sum of all four paws' median weight-bearing results. The difference in percent weight-bearing between the two hind paws is shown (“Walking pain”).
The test compounds were administered 60 min after induction of monoarthritis.
Results were analysed using 1-Way ANOVA followed by Newman-Keuls for comparison between treatment groups for data obtained at each time-point after administration. The level of significance was set at p<0.05 (SigmaStat® 2.03).

T1 sequence (P04629 442-796): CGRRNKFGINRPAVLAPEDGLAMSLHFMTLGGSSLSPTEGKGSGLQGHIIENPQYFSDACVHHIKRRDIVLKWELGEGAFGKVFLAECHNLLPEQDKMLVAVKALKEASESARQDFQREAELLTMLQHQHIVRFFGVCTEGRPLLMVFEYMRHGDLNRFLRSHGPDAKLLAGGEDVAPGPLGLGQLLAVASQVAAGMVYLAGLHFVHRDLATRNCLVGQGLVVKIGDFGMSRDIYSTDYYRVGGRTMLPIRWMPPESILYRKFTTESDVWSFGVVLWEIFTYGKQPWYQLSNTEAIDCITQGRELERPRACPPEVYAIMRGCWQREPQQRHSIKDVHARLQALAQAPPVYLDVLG

The IC50 is the concentration that inhibits the measured activity by half. As for `C[C@H](Nc1nc(Nc2cc(C3CC3)[nH]n2)c(Cl)cc1Cl)c1ccc(F)cc1` [(S)-3,5-Dichloro-N^2-(5-cyclopropyl-1H-pyrazol-3-yl)-N^6-(1-(4-fluoro-phenyl)ethyl)pyridine-2,6-diamine], in experiment [1], the IC50 is 611 nM.
Regarding `CC(C)Oc1cc(Nc2nc(N[C@@H](C)c3ccc(F)cn3)c(C#N)cc2F)n[nH]1` [(S)-5-Fluoro-2-(1-(5-fluoropyridin-2-yl)ethylamino)-6-(5-isopropoxy-1H-pyrazol-3-ylamino)nicotinonitrile], the “hindpaw weight distribution (difference in percent weight-bearing between the two hind paws), mean ±SEM” value in experiment [2] (50 μmol/kg per oral) worked out at 24.6±4.3%; in experiment [2] (100 μmol/kg per oral), 27.6±3.3%; in experiment [2] (200 μmol/kg per oral), 18.4±3.2%. For the same compound, the “effect on hindpaw weight distribution vs vehicle (p<0.05)” value in experiment [2] (four hours after per oral administration, all doses tested: 50, 100 and 200 μmol/kg) is given as “significantly reduced”; in experiment [2] (two hours after per oral administration, 50, 100 and 200 μmol/kg), “not at two hours”.
Take `C[C@H](Nc1ccc([N+](=O)[O-])c(Nc2cc(C3CC3)[nH]n2)n1)c1ccc(F)cc1` [(S)-N^2-(5-Cyclopropyl-1H-pyrazol-3-yl)-N^6-(1-(4-fluorophenyl)ethyl)-3-nitropyridine-2,6-diamine]: the IC50 in experiment [1] worked out at 63 nM.
Still for that read-out and setting: the figure for `C[C@H](Nc1nc(Nc2cc(C3CC3)[nH]n2)c(F)cc1CNC(=O)C1CCC(=O)N1)c1ccc(F)cc1` (stereo partly drawn) [N-((6-(5-Cyclopropyl-1H-pyrazol-3-ylamino)-5-fluoro-2-((S)-1-(4-fluorophenyl)ethylamino)pyridin-3-yl)methyl)-5-oxopyrrolidine-2-carboxamide] is 109 nM.

Values taken from patent publication US20080108669A1, “Use 541” (AstraZeneca AB, priority 2006, published 2008).
